Test results reported in patent EP4818168A1, “FUSED RING COMPOUND, PHARMACEUTICAL COMPOSITION THEREOF AND USE THEREOF” (priority 2023, dated 2025).
pIC50: −log10 of the molar value. Read-outs that look alike come from different tables or passages of the source.

Experiments:
H82 cells = assay: cells; type: cell-based; settings: Homo sapiens
Experimental: CellTiter-Glo (CTG) is a rapid cell viability test method based on ATP detection. […] Adenosine triphosphate (ATP) participates in various enzymatic reactions in organisms and is an indicator of living cell metabolism. Its content directly reflects the number of living cells and cell status. During the experiment, equal volume of CTG reagent is added to the cultured cells to measure the luminescence value. The chemiluminescent signal value is proportional to the amount of ATP, thus reflecting the number of viable cells. Therefore, cell viability can be obtained by detecting the ATP content. Compounds that affect cell viability will inhibit cell viability in a concentration-dependent manner, allowing a curve to be fitted to obtain the IC50 value.
The experimental procedure is as follows: • 11. Place the cell suspension in a 15 mL centrifuge tube, centrifuge at 1000 rpm for 5 min at room temperature, discard the supernatant, and collect the cell pellet. • 12. Resuspend the cell pellet with preheated complete cell culture medium (RPMI1640+10%FBS+1%PS), and use a Countess® automated cell counter to detect cell viability and density. […] Transfer the compound solution to a 96-well plate seeded with cells (final concentration of DMSO 0.1%), and place in a cell incubator at 37°C, 5% CO2 for 6 days. • 15. […] Protect from light during the whole process. Perform optical signal readings using a SpectraMax i3x reader. • 16. Data analysis: Remaining activity (%) = 100% * (1 - ((LumDMSO - Lummedium) - Lumsample) / (LumDMSO - LumPBS/medium)). Use GraphPad Prism 9.0 software to draw an S-shaped dose-survival rate curve and calculate the IC50 value using a nonlinear regression model.

AURKA = biological target: T1, AURKA (Homo sapiens, UniProt O14965); type: cell-based
T1 construct: endogenous in cells; host or cells: Jurkat cells
T1 sequence (O14965 1-403): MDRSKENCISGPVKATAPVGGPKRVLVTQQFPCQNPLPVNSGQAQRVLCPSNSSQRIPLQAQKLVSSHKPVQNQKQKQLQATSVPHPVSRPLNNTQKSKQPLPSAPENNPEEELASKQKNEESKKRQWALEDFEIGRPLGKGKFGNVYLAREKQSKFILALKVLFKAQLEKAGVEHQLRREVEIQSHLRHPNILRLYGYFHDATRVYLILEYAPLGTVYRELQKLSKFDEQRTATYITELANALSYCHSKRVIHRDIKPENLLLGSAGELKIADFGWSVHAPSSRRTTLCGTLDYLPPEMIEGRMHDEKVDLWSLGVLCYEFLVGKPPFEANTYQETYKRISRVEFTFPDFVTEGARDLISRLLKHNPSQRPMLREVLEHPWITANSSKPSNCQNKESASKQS
Excerpt: WB is a classical biochemical experimental method used to detect the abundance of a target protein in a sample of cells or biological tissue. It relies on specific antigen-antibody binding to detect protein signals from the sample processed by gel electrophoresis: the protein specifically binds to a primary antibody at an epitope; the primary antibody is then conjugated with a secondary antibody to amplify the signal cascade; the signal is read out by chemiluminescent or fluorescent detection. The intracellular protein content is ultimately characterized by the intensity of the optical signals. […] The DC50 value can be calculated by curve fitting of the protein WB exposure signals.
The experimental procedure is as follows: • 1. Seed Jurkat cells into a 12-well plate at 1×10^6 cells/500 µL/well. • 2. Mix the culture medium with the compound to a concentration that is twice the desired final concentration. […] Transfer the cell suspension to a centrifuge tube. Rinse the 12-well plate with PBS and then transfer the PBS from the plate to the same centrifuge tube. Centrifuge at 3000 rpm for 5 min at room temperature. Aspirate the supernatant using a vacuum pump. […] Lyse on ice for 20 min. • 4. Centrifuge the lysed sample at 13000 rpm for 20 min at 4°C. Mix the supernatant with 5× protein loading buffer. Boil at 100°C for 5 min and then cool. Store the denatured protein sample at -20°C. • 5. […] Run electrophoresis at 80 V for 20 min, and then at 120 V constant voltage for 60 min. • 6. Transfer the protein onto a nitrocellulose membrane in an ice bath at 250 mA constant current for 90 min. • 7. […] Incubate with a primary antibody overnight at 4°C. • 9. […] Incubate with a secondary antibody for 1-2 h at room temperature. • 10. […] Expose and image the membrane using a LICOR Odyssey DLx imager.

[1] = NCI-H82, H82 cells, 4000 cells/well, CellTiter-Glo, read-out: IC50 in H82 Cells
[2] = 100 nM compound, Jurkat cells, 24 h, Table 2
[3] = 1 µM compound, Jurkat cells, 24 h, Table 2
[4] = NCI-H82, read-out: IC50 in H82 Cells

Row | Compound | pIC50 (H82 cells; [1]) | Percentage of AURKA Degradation Induced by 100 nM Compound in Jurkat Cells (AURKA; [2]) | Percentage of AURKA Degradation Induced by 1 µM Compound in Jurkat Cells (AURKA; [3]) | pIC50 (H82 cells; [4]) | Percentage of AURKA Degradation Induced by 100 nM Compound in Jurkat Cells (AURKA) | Percentage of AURKA Degradation Induced by 1 µM Compound in Jurkat Cells (AURKA)
1 | O=C1CCN(c2ccc(N3CC(N4CCN(Cc5ccc(Nc6ncc7c(n6)-c6ccc(Cl)cc6C(c6c(F)cccc6F)=NC7)cc5)CC4)C3)nc2)C(=O)N1 [Compound A101] | > 6.00 | +++ (Degradation > 70%) | +++ (Degradation > 70%) |  |  | 
2 | O=C1CCN(c2ccc(N3CCN(CCCOc4cccc(Nc5ncc6c(n5)-c5ccc(Cl)cc5C(c5c(F)cccc5F)=NC6)c4)CC3)cc2)C(=O)N1 [Compound A102] | > 6.00 | + (Degradation ≤ 30%) | + (Degradation ≤ 30%) |  |  | 
3 | O=C1CCN(c2ccc(N3CCN(CCC(=O)Nc4ccc(Nc5ncc6c(n5)-c5ccc(Cl)cc5C(c5c(F)cccc5F)=NC6)cc4)CC3)cc2)C(=O)N1 [Compound A104] | > 6.00 | +++ (Degradation > 70%) | +++ (Degradation > 70%) |  |  | 
4 | Cn1c(CN2CCN(c3ccc(N4CCC(=O)NC4=O)cc3)CC2)cnc1-c1ccc(Nc2ncc3c(n2)-c2ccc(Cl)cc2C(c2c(F)cccc2F)=NC3)cc1 [Compound A106] | > 6.00 | +++ (Degradation > 70%) | +++ (Degradation > 70%) |  |  | 
5 | O=C1CCN(c2ccc(NCCN3CCn4c(cnc4-c4ccc(Nc5ncc6c(n5)-c5ccc(Cl)cc5C(c5c(F)cccc5F)=NC6)cc4)C3)cc2)C(=O)N1 [Compound A107] | > 6.00 | ++ (30% < Degradation ≤ 70%) | ++ (30% < Degradation ≤ 70%) |  |  | 
6 | O=C1CCN(c2ccc(N3CCC4(CC3)CC(NC(=O)c3ccc(Nc5ncc6c(n5)-c5ccc(F)cc5C(c5c(F)cccc5F)=NC6)cc3)C4)nc2)C(=O)N1 [Compound A109] | > 6.00 | ++ (30% < Degradation ≤ 70%) | ++ (30% < Degradation ≤ 70%) |  |  | 
7 | Cc1cc(N2CCC3(CC2)CC(NC(=O)c2ccc(Nc4ncc5c(n4)-c4ccc(Cl)cc4C(c4c(F)cccc4F)=NC5)cc2)C3)ncc1N1CCC(=O)NC1=O [Compound A110] | > 6.00 | ++ (30% < Degradation ≤ 70%) | ++ (30% < Degradation ≤ 70%) |  |  | 
8 | Cc1nc(N2CCC3(CC2)CC(NC(=O)c2ccc(Nc4ncc5c(n4)-c4ccc(Cl)cc4C(c4c(F)cccc4F)=NC5)cc2)C3)ccc1N1CCC(=O)NC1=O [Compound A112] | > 6.00 | +++ (Degradation > 70%) | +++ (Degradation > 70%) |  |  | 
9 | O=C1CCN(c2ccc(N3CCC4(CC3)CC(NC(=O)c3ccc(Nc5ncc6c(n5)-c5ccc(C7CC7)cc5C(c5c(F)cccc5F)=NC6)cc3)C4)nc2)C(=O)N1 [Compound A115] | > 6.00 | +++ (Degradation > 70%) | +++ (Degradation > 70%) |  |  | 
10 | O=C1CCN(c2ccc(N3CCC4(CC3)CC(NC(=O)c3ccc(Nc5ncc6c(n5)-c5ccccc5C(c5c(F)cccc5F)=NC6)cc3)C4)nc2)C(=O)N1 [Compound A116] | > 6.00 | +++ (Degradation > 70%) | +++ (Degradation > 70%) |  |  | 
11 | Cc1ccc2c(c1)C(c1c(F)cccc1F)=NCc1cnc(Nc3ccc(C(=O)NC4CC5(CCN(c6ccc(N7CCC(=O)NC7=O)cn6)CC5)C4)cc3)nc1-2 [Compound A118] | > 6.00 | ++ (30% < Degradation ≤ 70%) | +++ (Degradation > 70%) |  |  | 
12 | O=C1CCN(c2ccc(C3CN(C4CN(C(=O)c5ccc(Nc6ncc7c(n6)-c6ccc(Cl)cc6C(c6c(F)cccc6F)=NC7)cc5)C4)C3)nc2)C(=O)N1 [Compound A120] |  | + (Degradation ≤ 30%) | + (Degradation ≤ 30%) | > 6.00 |  | 
13 | O=C1CCN(c2ccc(N3CCN(Cc4cnc(-c5ccc(Nc6ncc7c(n6)-c6ccc(Cl)cc6C(c6c(F)cccc6F)=NC7)cc5)[nH]4)CC3)cc2)C(=O)N1 [Compound A121] | > 6.00 | +++ (Degradation > 70%) | ++ (30% < Degradation ≤ 70%) |  |  | 
14 | COc1ccc2c(c1)C(c1c(F)cccc1F)=NCc1cnc(Nc3ccc(C(=O)NC4CC5(CCN(c6ccc(N7CCC(=O)NC7=O)cn6)CC5)C4)cc3)nc1-2 [Compound A122] | > 6.00 | +++ (Degradation > 70%) | +++ (Degradation > 70%) |  |  | 
15 | O=C1CCN(c2ccc(N3CCN(CC#Cc4ccc(Nc5ncc6c(n5)-c5ccc(Cl)cc5C(c5c(F)cccc5F)=NC6)cc4)CC3)cc2)C(=O)N1 [Compound A124] | > 6.00 | + (Degradation ≤ 30%) | + (Degradation ≤ 30%) |  |  | 
16 | O=C1CCN(c2cccc(N3CCN(CCOc4cccc(Nc5ncc6c(n5)-c5ccc(Cl)cc5C(c5c(F)cccc5F)=NC6)c4)CC3)c2)C(=O)N1 [Compound A125] | > 6.00 | ++ (30% < Degradation ≤ 70%) | +++ (Degradation > 70%) |  |  | 
17 | O=C1CCN(c2cccc(C3CN(CC#Cc4cccc(Nc5ncc6c(n5)-c5ccc(Cl)cc5C(c5c(F)cccc5F)=NC6)c4)C3)c2)C(=O)N1 [Compound A126] | > 6.00 | + (Degradation ≤ 30%) | + (Degradation ≤ 30%) |  |  | 
18 | O=C1CCN(c2cccc(N3CCC(C#Cc4cccc(Nc5ncc6c(n5)-c5ccc(Cl)cc5C(c5c(F)cccc5F)=NC6)c4)CC3)c2)C(=O)N1 [Compound A127] |  |  |  | > 6.00 | +++ (key: +: Degradation ≤ 30%; ++: 30% < Degradation ≤ 70%; +++: Degradation > 70%) | +++ (key: +: Degradation ≤ 30%; ++: 30% < Degradation ≤ 70%; +++: Degradation > 70%)
19 | O=C1CCN(c2ccc(N3CCC4(CC3)CC(NC(=O)c3ccc(Nc5ncc6c(n5)-c5ccc(Cl)cc5C(c5ccccn5)=NC6)cc3)C4)nc2)C(=O)N1 [Compound A128] | > 6.00 | +++ (Degradation > 70%) | +++ (Degradation > 70%) |  |  | 
20 | Cc1c(N2CCN(CCC#Cc3cccc(Nc4ncc5c(n4)-c4ccc(Cl)cc4C(c4c(F)cccc4F)=NC5)c3)CC2)cccc1N1CCC(=O)NC1=O [Compound A129] | > 6.00 | +++ (Degradation > 70%) | +++ (Degradation > 70%) |  |  | 
